Converted amounts (≈) assume the structure as drawn. The source made the active and inactive calls. The rule behind the calls is not given here.

The subject of one series is Staphylococcus aureus. Put plainly: Antibacterial activity against Staphylococcus aureus ATCC 13709 by CLSI broth microdilution method. The format is functional. In general terms: Dilution methods test growth across graded concentrations, often in twofold steps.
In series [1] the target is Transcription factor Jun (Mus musculus) (UniProt P05627). Put plainly: Inhibition of AP1-mediated mediated IL-1beta production in LPS-induced mouse pulmonary neutrophila model.
Chain of Transcription factor Jun (Mus musculus) (P05627 whole entry): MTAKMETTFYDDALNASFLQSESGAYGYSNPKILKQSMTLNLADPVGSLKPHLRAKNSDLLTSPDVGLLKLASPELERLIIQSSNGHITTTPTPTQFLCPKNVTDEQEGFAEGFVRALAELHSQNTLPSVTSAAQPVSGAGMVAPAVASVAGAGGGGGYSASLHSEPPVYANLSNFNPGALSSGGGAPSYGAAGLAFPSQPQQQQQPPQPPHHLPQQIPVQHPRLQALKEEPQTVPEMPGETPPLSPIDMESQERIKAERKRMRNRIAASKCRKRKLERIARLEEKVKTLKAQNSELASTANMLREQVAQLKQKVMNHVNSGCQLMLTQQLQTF
A short description of series [2]: Cytotoxicity against human THP1 cells assessed as cell viability at 50 uM after 24 hrs by MTT assay. The format is cell-based, THP-1. Particulars: read-out: Activity.
Series [3] is described as follows: Cmax in lung cancer patient serum at 2 gram, po qd. The format is ADME, organism-based. Further details: route oral. Particulars: human.
Series [4] can be described thus: Antiinflammatory activity in mouse splenocytes assessed as inhibition of LPS-induced IL-6 production at 50 uM preincubated for 2 hrs prior to LPS challenge by sandwich ELISA. The following applies: Splenocyte. The format is functional.
The test system of series [5] is Mus musculus. Put plainly: Antiinflammatory activity in BALB/cJ mouse assessed as decrease in LPS-induced neutrophil number in bronchoalveolar lavage fluid at 200 mg/kg, ip administered 2 hrs prior to LPS challenge measured after 24 hrs post LPS challenge. The following applies: Lung. The format is functional, organism-based. Set-up: dose 200 mg/kg.
The subject of series [6] is Mus musculus. Put plainly: Antiinflammatory activity in BALB/cJ mouse assessed as decrease in LPS-induced total cell number in bronchoalveolar lavage fluid at 200 mg/kg, ip administered 2 hrs prior to LPS challenge measured after 24 hrs post LPS challenge. The following applies: Lung. The format is functional, organism-based. Set-up: dose 200 mg/kg.
Series [7] is described as follows: Cmax in cystic fibrosis patient plasma at 500 mg. The format is ADME, organism-based. Further details: dose 500 mg. The following applies: human.
The next series has as its system Streptococcus pneumoniae. Put plainly: Antibacterial activity against Streptococcus pneumoniae ATCC 49619 by CLSI broth microdilution method. The format is functional.
For a further series, the system named is Moraxella catarrhalis. Put plainly: Antibacterial activity against Moraxella catarrhalis ATCC 23246 by CLSI broth microdilution method. The format is functional.
Series [8] in a line: Antiinflammatory activity in mouse splenocytes assessed as inhibition of LPS-induced IL-6 production in mouse splenocytes at 25 uM preincubated for 2 hrs prior to LPS challenge by sandwich ELISA. The format is functional. Particulars: Splenocyte. On the technique in general: ELISA stands for enzyme-linked immunosorbent assay.
Series [9] can be described thus: Cmax in lung cancer patient epithelial lining fluid at 2 gram, po qd. The format is ADME, organism-based. Set-up: route oral. The following applies: human.
A further series relates to Haemophilus influenzae. Put plainly: Antibacterial activity against Haemophilus influenzae ATCC 49247 by CLSI broth microdilution method. The format is functional.
Series [10] can be described thus: Antiinflammatory activity in mouse splenocytes assessed as inhibition of LPS-induced IL-6 production at 12 uM preincubated for 2 hrs prior to LPS challenge by sandwich ELISA. The format is functional. The following applies: Splenocyte.
The test system of a further series is Streptococcus pyogenes. Put plainly: Antibacterial activity against Streptococcus pyogenes ATCC 700294 by CLSI broth microdilution method. The format is functional.
Series [11] can be described thus: Cmax in cystic fibrosis patient blood at 500 mg. The format is ADME, organism-based. Further details: dose 500 mg. The following applies: human, whole blood.
Series [12] in a line: Oral bioavailability in BALB/cJ mouse at 25 mg/kg. The format is ADME, organism-based. Particulars: in vivo.
Series [13] can be described thus: Oral bioavailability in Sprague-Dawley rat at 10 mg/kg. Particulars: in vivo. The format is ADME, organism-based.
The target of series [14] is T1, Cytochrome P450 3A4 (Homo sapiens, UniProt P08684).
T1 sequence (P08684 whole entry): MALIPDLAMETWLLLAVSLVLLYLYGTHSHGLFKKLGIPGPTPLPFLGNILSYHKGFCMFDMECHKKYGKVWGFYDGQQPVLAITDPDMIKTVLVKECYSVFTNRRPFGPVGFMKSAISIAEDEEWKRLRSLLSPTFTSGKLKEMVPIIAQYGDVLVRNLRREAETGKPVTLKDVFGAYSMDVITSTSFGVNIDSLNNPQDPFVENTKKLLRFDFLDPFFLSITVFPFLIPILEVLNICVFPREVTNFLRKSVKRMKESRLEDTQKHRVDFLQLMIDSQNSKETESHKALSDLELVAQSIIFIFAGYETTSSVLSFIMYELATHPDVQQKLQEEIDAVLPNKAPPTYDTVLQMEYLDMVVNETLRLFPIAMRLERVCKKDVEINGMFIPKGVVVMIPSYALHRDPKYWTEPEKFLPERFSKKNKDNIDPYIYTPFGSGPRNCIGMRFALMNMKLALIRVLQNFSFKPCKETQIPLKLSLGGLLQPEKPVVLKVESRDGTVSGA
Description: Inhibition of human recombinant CYP3A4 using DEF as substrate preincubated for 5 to 10 mins before substrate addition
Series [15] can be described thus: Volume of distribution at steady state in BALB/cJ mouse at 5 mg/kg, iv and 25 mg/kg, po. The format is ADME, organism-based. The following applies: in vivo, read-out: Vdss.
Series [16] relates to Mus musculus. Put plainly: Antiinflammatory activity in BALB/cJ mouse assessed as inhibition of LPS-induced CXCL1 production in lung homogenates at 200 mg/kg, ip administered 2 hrs prior to LPS challenge. The format is functional, organism-based. Set-up: dose 200 mg/kg.
The nature of series [17]: Half life in Sprague-Dawley rat at 2 mg/kg, iv and 10 mg/kg, po. The format is ADME, organism-based. The following applies: in vivo.
The target in series [18] is T1, Cytochrome P450 3A4. The source holds these as a separate data set.
Description: Inhibition of human recombinant CYP3A4 using 7-BQ as substrate preincubated for 5 to 10 mins before substrate addition
In series [19] the test system is Mus musculus. Put plainly: Antiinflammatory activity in ip dosed BALB/cJ mouse assessed as decrease in LPS-induced neutrophil number in bronchoalveolar lavage fluid administered 2 hrs prior to LPS challenge measured after 24 hrs post LPS challenge. The following applies: Lung. The format is functional, organism-based.
Series [20] has as its system Mus musculus. Put plainly: Antiinflammatory activity in BALB/cJ mouse assessed as inhibition of LPS-induced IL-1beta production in lung homogenates at 200 mg/kg, ip administered 2 hrs prior to LPS challenge. The format is functional, organism-based. Further details: dose 200 mg/kg.
Series [21] relates to Mus musculus. Put plainly: Antiinflammatory activity in BALB/cJ mouse assessed as inhibition of LPS-induced TNFalpha level in lung homogenates at 200 mg/kg, ip administered 2 hrs prior to LPS challenge. The format is functional, organism-based. Further details: dose 200 mg/kg.
Series [22] is described as follows: Clearance in BALB/cJ mouse at 5 mg/kg, iv and 25 mg/kg, po. The following applies: in vivo. The format is ADME, organism-based.
Series [23] can be described thus: Volume of distribution at steady state in Sprague-Dawley rat at 2 mg/kg, iv and 10 mg/kg, po. The format is ADME, organism-based. The following applies: in vivo, read-out: Vdss.
For series [24], the system named is Mus musculus. Put plainly: Antiinflammatory activity in ip dosed BALB/cJ mouse assessed as decrease in LPS-induced total cell number in bronchoalveolar lavage fluid administered 2 hrs prior to LPS challenge measured after 24 hrs post LPS challenge. The format is functional, organism-based. The following applies: Lung.
A short description of series [25]: Clearance in Sprague-Dawley rat at 2 mg/kg, iv and 10 mg/kg, po. The format is ADME, organism-based. Particulars: in vivo.
The subject of series [26] is Mus musculus. Put plainly: Antiinflammatory activity in BALB/cJ mouse assessed as inhibition of LPS-induced IL-6 production in lung homogenates at 200 mg/kg, ip administered 2 hrs prior to LPS challenge. The format is functional, organism-based. Further details: dose 200 mg/kg.
For series [27], the system named is Mus musculus. Put plainly: Antiinflammatory activity in BALB/cJ mouse assessed as inhibition of LPS-induced GM-CSF production in lung homogenates at 200 mg/kg, ip administered 2 hrs prior to LPS challenge. The format is functional, organism-based. Further details: dose 200 mg/kg.
The subject of series [28] is Mus musculus. Put plainly: Antiinflammatory activity in BALB/cJ mouse assessed as inhibition of LPS-induced CCL2 production in lung homogenates at 200 mg/kg, ip administered 2 hrs prior to LPS challenge. The format is functional, organism-based. Set-up: dose 200 mg/kg.
The test system of series [29] is Mus musculus. Put plainly: Antiinflammatory activity in BALB/cJ mouse assessed as inhibition of LPS-induced CXCL2 production in lung homogenates at 200 mg/kg, ip administered 2 hrs prior to LPS challenge. The format is functional, organism-based. Set-up: dose 200 mg/kg.
A short description of series [30]: Half life in BALB/cJ mouse at 5 mg/kg, iv and 25 mg/kg, po. The format is ADME, organism-based. Particulars: in vivo.

In general, inhibition refers to the relative decrease from the control value, in per cent. In general, Cmax refers to the peak of the concentration-time curve. As to `CC[C@H]1OC(=O)[C@H](C)[C@@H](O[C@H]2C[C@@](C)(OC)[C@@H](O)[C@H](C)O2)[C@H](C)[C@@H](O[C@@H]2O[C@H](C)C[C@H](N(C)C)[C@H]2O)[C@](C)(O)C[C@@H](C)CN(C)[C@H](C)[C@@H](O)[C@]1(C)O` [AZITHROMYCIN], the MIC against Staphylococcus aureus is 0.5 µg/mL (≈ 0.668 µM); with Streptococcus pneumoniae, less than 0.125 µg/mL; in the series with Moraxella catarrhalis, less than 0.125 µg/mL; in the series with Haemophilus influenzae, 2 µg/mL (≈ 2.67 µM); with Streptococcus pyogenes it was less than 0.125 µg/mL. Also, in [1], the inhibition result was “Active”. Moreover, the viability at 24 h, 50 µM in series [2] amounted to 0%. The Cmax in [3] worked out at 940 ng/mL; in [7], 670 ng/mL; in series [9] it was 3200 ng/mL; in [11] it was 2010 ng/mL. Besides, the inhibition at 50 µM in series [4] amounted to 84%. The outcome in the series on Mus musculus [5] and in the series on Mus musculus [6] was Active. Also, the inhibition at 25 µM in series [8] came out at 74%. The inhibition at 12 µM in series [10] turned out to be 61%.

By bioavailability is commonly meant dose-corrected exposure relative to a reference, in per cent. Higher therefore signals good availability. As a reminder, the IC50 is the point on the concentration scale where inhibition reaches its midpoint. Read a high IC50 as weaker potency in that assay. By half-life is commonly meant the time in which the quantity being followed falls by half. Take `CC[C@H]1OC(=O)[C@H](C)[C@@H](O[C@H]2C[C@@](C)(OC)[C@@H](O)[C@H](C)O2)[C@H](C)[C@@H](O[C@@H]2O[C@H](C)C[C@H]3[C@H]2O/C(=N\C(C)C)N3C)[C@](C)(O)C[C@@H](C)CN(C)[C@H](C)[C@@H](O)[C@]1(C)O`: the bioavailability was 62% in series [12] and 33% in [13]. For the same molecule, the results for the IC50 against Cytochrome P450 3A4 [14] and against Cytochrome P450 3A4 [18] were 7.8 µM and more than 10 µM, respectively. In addition, the Vd turned out to be 23 L/kg in series [15] and 8.6 L/kg in series [23]. Further, the inhibition entry in the series on Mus musculus [16], in the series on Mus musculus [20], in the series on Mus musculus [21], with Mus musculus [26], with Mus musculus [27] and with Mus musculus [28] was “Active” in each case. The inhibition entry with Mus musculus [29] is “Active”. Moreover, the viability at 24 h, 50 µM in [2] is 9%. For the same molecule, in series [4], the inhibition at 50 µM stood at 95%. Moreover, the half-life in [17] was 20.3 h; in series [30], 17.3 h. The Activity result in the series on Mus musculus [19] and in the series on Mus musculus [24] was “Dose-dependent effect” in each case. The clearance in series [22] was found to be 19.8 mL/min/kg; in [25], 12.3 mL/min/kg. Moreover, in series [8], the inhibition at 25 µM amounted to 90%. Besides, the inhibition at 12 µM in series [10] amounted to 79%. For the same molecule, the MIC in the series on Streptococcus pyogenes is more than 64 µg/mL.

Source of the values: ChEMBL document CHEMBL2157869, “N'-substituted-2'-O,3'-N-carbonimidoyl bridged macrolides: novel anti-inflammatory macrolides without antimicrobial activity” (J Med Chem, 2012).
